≈ marks a conversion by molar mass, not a printed value.
Assays:
HCT-116 = assay: Growth inhibition of human HCT116 cells after 72 hrs by MTT assay; format: functional; settings: HCT-116, 72 h
Aurora kinase A = target: T1, Aurora kinase A (Homo sapiens, UniProt O14965)
T1 sequence (O14965 whole entry): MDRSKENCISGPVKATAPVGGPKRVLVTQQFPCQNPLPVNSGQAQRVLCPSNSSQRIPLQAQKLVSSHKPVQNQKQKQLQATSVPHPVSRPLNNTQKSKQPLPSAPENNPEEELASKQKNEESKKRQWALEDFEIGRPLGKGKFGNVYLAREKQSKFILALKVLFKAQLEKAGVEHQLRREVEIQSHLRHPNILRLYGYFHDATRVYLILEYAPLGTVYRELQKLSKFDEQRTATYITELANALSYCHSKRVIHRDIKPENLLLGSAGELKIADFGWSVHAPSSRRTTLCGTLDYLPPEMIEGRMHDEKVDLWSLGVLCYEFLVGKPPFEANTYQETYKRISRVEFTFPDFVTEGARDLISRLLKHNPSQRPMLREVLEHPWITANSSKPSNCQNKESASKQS
Description: Inhibition of human recombinant Aurora A expressed in baculovirus system

[1] = Aqueous solubility of the compound; format: physicochemical; settings: buffer
[2] = Metabolic stability in CD1 mouse liver microsomes assessed as compound remaining at 10 uM after 30 mins by LC-MS/MS analysis; format: ADME, Microsome; settings: read-out: Stability
[3] = Oral bioavailability in BALB/c mouse at 5 mg/kg; format: ADME, organism-based; settings: in vivo
[4] = target: Vascular endothelial growth factor receptor 2 (Homo sapiens) (UniProt P35968); assay: Inhibition of KDR at 1 uM
Chain of Vascular endothelial growth factor receptor 2 (Homo sapiens) (P35968 whole entry): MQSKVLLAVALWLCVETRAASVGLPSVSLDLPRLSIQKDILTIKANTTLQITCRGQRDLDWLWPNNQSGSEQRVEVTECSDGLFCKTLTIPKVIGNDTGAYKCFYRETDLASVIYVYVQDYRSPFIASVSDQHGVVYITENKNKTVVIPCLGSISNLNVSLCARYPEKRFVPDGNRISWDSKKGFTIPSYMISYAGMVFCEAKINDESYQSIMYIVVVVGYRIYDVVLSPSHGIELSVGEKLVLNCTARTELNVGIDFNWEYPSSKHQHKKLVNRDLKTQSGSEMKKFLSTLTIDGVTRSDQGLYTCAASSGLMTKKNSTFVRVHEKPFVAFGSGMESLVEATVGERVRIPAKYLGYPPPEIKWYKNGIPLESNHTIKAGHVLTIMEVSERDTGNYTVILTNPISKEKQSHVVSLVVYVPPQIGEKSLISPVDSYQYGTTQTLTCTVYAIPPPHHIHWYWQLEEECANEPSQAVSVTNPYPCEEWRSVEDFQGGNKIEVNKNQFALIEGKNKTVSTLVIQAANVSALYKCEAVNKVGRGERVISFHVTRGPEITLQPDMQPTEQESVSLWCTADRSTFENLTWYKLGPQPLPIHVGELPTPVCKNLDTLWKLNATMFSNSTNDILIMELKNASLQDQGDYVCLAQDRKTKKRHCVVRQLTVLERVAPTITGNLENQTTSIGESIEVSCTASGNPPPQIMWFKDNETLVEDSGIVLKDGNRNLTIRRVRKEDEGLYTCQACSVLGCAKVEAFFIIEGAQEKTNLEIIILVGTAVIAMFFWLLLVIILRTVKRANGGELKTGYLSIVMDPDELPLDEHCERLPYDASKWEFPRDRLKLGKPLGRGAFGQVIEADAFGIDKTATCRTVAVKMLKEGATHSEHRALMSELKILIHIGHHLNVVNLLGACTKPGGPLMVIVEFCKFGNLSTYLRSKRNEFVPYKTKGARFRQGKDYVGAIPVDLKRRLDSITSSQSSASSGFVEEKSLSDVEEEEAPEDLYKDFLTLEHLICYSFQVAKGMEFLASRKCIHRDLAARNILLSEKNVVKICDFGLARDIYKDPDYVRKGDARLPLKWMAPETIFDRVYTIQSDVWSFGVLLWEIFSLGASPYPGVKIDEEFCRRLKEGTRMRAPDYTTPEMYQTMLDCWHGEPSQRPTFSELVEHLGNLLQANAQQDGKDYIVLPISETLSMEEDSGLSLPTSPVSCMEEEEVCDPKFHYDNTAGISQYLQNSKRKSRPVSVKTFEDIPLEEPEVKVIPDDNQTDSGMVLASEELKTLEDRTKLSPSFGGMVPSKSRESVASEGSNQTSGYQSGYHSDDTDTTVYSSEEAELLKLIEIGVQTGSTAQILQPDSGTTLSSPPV

[5] = target: Hepatocyte growth factor receptor (Homo sapiens) (UniProt P08581); assay: Inhibition of MET at 1 uM
[6] = target: Tyrosine-protein kinase Lck (Homo sapiens) (UniProt P06239); assay: Inhibition of LCK at 1 uM
Chain of Tyrosine-protein kinase Lck (Homo sapiens) (P06239 2-509 limits assumed): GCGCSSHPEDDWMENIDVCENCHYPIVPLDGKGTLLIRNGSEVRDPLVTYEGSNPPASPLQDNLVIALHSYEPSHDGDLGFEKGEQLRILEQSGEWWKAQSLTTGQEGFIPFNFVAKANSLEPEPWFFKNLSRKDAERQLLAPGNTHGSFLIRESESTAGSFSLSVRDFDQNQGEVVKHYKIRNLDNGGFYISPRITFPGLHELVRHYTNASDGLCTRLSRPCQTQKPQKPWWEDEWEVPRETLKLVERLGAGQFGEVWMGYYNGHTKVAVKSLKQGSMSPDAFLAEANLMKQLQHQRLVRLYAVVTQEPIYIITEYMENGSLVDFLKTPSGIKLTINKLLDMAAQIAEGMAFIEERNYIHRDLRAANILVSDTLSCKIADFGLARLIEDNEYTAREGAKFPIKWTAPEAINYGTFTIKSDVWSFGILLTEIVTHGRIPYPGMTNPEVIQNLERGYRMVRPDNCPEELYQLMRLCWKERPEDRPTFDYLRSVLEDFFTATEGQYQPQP

[7] = target: T2, Ephrin type-B receptor 4 (Homo sapiens) (UniProt P54760); assay: Inhibition of EPHB4 at 1 uM
T2 sequence (whole entry): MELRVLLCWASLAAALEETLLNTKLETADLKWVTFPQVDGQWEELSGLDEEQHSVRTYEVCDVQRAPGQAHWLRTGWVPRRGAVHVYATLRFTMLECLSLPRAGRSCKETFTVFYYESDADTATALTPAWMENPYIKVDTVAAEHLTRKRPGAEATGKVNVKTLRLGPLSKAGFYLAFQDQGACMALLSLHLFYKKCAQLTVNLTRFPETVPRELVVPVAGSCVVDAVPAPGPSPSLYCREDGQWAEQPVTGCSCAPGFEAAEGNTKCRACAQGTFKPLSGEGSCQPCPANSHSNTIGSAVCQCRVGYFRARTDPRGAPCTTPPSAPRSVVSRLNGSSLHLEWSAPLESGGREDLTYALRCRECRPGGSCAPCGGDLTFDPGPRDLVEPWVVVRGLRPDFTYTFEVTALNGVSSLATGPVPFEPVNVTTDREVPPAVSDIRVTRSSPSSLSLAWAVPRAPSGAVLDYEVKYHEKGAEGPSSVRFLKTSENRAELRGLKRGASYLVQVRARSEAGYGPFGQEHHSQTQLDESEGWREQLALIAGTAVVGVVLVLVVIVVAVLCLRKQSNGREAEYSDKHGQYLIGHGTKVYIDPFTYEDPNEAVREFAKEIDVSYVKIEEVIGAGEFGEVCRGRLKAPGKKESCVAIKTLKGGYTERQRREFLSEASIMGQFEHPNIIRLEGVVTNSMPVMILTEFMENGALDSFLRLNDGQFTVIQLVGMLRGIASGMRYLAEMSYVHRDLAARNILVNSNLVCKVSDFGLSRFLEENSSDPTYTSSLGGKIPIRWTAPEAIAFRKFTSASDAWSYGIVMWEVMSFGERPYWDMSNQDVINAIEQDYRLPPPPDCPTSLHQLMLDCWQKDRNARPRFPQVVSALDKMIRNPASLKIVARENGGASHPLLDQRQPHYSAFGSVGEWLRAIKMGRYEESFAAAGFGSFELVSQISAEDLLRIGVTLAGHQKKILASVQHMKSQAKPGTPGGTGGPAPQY

[8] = target: Vascular endothelial growth factor receptor 1 (Homo sapiens) (UniProt P17948); assay: Inhibition of FLT1 at 1 uM
Chain of Vascular endothelial growth factor receptor 1 (Homo sapiens) (P17948 whole entry): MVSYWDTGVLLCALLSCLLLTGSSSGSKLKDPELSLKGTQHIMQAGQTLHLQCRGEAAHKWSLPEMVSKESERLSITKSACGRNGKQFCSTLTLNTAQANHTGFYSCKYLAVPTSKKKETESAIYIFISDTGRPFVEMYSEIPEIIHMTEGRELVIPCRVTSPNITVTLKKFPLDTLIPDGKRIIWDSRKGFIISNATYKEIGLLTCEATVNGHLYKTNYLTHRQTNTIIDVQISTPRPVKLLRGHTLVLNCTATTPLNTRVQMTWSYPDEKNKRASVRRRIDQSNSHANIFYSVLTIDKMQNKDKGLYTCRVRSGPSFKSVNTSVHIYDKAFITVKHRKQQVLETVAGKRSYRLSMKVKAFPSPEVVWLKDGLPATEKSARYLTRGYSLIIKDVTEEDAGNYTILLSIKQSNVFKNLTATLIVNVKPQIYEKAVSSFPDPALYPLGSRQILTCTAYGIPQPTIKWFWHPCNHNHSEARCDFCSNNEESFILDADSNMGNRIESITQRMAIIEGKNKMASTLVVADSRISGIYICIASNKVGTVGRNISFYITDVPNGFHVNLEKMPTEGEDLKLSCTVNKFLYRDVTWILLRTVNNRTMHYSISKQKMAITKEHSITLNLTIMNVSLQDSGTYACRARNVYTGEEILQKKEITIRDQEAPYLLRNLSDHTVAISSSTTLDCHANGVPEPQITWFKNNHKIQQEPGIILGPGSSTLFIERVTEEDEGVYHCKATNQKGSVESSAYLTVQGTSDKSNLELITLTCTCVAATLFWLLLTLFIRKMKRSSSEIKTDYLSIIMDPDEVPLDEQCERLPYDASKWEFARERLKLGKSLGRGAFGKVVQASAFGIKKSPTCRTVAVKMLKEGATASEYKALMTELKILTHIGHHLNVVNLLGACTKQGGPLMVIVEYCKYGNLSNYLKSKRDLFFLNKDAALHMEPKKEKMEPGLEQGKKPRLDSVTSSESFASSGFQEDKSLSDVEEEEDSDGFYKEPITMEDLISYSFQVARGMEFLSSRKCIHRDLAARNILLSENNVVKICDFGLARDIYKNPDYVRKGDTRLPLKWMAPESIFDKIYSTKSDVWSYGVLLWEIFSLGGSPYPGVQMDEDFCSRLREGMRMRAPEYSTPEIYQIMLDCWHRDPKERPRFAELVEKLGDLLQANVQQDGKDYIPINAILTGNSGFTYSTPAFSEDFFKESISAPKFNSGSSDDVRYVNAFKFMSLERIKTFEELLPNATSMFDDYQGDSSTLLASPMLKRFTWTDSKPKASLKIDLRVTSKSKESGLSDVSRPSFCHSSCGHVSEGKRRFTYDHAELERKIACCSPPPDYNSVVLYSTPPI

[9] = target: High affinity nerve growth factor receptor (Homo sapiens) (UniProt P04629); assay: Inhibition of NTRK1 at 1 uM
Chain of High affinity nerve growth factor receptor (Homo sapiens) (P04629 33-796 limits assumed): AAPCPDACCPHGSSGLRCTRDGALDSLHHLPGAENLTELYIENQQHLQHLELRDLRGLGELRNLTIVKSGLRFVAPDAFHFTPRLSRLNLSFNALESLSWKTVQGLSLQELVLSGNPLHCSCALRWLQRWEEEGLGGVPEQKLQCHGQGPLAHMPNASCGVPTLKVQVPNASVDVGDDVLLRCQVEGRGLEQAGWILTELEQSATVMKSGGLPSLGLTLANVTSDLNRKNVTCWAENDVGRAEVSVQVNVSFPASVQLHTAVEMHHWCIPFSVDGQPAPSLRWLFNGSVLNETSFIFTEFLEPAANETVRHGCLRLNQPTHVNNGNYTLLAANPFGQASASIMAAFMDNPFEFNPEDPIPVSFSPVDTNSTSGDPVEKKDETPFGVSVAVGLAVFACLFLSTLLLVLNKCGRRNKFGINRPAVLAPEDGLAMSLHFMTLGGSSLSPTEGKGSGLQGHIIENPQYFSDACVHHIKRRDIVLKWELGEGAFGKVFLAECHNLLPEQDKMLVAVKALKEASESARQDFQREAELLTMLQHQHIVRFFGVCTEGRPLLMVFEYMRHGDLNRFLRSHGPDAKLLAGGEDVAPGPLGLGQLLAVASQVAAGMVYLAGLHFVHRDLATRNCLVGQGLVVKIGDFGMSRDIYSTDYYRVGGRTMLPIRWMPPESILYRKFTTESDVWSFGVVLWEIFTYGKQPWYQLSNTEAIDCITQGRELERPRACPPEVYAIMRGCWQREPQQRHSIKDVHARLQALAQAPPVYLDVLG

[10] = target: Platelet-derived growth factor receptor beta (Homo sapiens) (UniProt P09619); assay: Inhibition of PDGFRbeta at 1 uM
[11] = target: Aurora kinase B (Homo sapiens) (UniProt Q96GD4); assay: Inhibition of Aurora B at 1 uM
Chain of Aurora kinase B (Homo sapiens) (Q96GD4 whole entry): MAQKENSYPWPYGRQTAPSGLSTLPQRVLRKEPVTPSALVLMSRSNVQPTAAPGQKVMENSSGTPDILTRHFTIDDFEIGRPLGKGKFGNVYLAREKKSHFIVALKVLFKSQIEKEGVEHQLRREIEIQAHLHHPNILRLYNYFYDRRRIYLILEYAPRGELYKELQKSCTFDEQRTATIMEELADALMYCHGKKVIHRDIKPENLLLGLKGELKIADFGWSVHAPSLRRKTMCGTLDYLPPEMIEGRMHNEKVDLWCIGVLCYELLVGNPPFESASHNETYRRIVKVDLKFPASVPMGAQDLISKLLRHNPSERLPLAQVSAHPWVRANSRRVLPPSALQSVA

[12] = target: T3, Aurora kinase A (Homo sapiens) (UniProt O14965); assay: Inhibition of Aurora A at 1 uM
T3 sequence (whole entry): T1 sequence (O14965 whole entry)

[13] = target: Angiopoietin-1 receptor (Homo sapiens) (UniProt Q02763); assay: Inhibition of TEK at 1 uM
hERG (KCNH2) = hERG (KCNH2) (Homo sapiens, UniProt Q12809); assay: Inhibition of human ERG at 10 uM

| SMILES | GI50 (HCT-116) [nM] | IC50 (Aurora kinase A) [nM] | further results |
| --- | --- | --- | --- |
| CN(C)c1ccc(-c2nc3c(N4CCN(Cc5ccncc5)CC4)c(Br)cnc3[nH]2)cc1 | 700 | 55 |  |
| O=C(CN1CCN(c2c(Cl)cnc3[nH]c(-c4ccc(CN5CCOCC5)cc4)nc23)CC1)Nc1nccs1 | 360 | 3 |  |
| COc1ccc(-c2nc3c(N4CCN(Cc5cccnc5)CC4)c(Br)cnc3[nH]2)cc1 | 1150 | 9 |  |
| Cc1cc(CN2CCN(c3c(Br)cnc4nc(-c5ccc(CN6CCNCC6)cc5)[nH]c34)CC2)no1 | 78 | 10 | solubility [1]: 870 µg/mL (≈ 1580 µM); remaining at 0.5 h, 10 µM [2]: > 50% |
| CC(C)CN1CCN(c2c(Br)cnc3[nH]c(-c4ccc(N(C)C)cc4)nc23)CC1 | 970 | 210 |  |
| CN(C)c1ccc(-c2nc3c(N4CCN(c5ccccc5)CC4)c(Br)cnc3[nH]2)cc1 |  | 258 |  |
| COc1ccc(-c2nc3c(N4CCN(Cc5nccn5C)CC4)c(Br)cnc3[nH]2)cc1 | 1500 | 32 |  |
| CN(C)c1ccc(-c2nc3c(N4CCN(C(=O)Nc5ccccc5)CC4)c(Br)cnc3[nH]2)cc1 | 10000 | 277 |  |
| Brc1cnc2[nH]c(-c3ccc(CN4CCOCC4)cc3)nc2c1N1CCN(Cc2cscn2)CC1 |  | 6 |  |
| CN(C)c1ccc(-c2nc3c(N4CCN(CC(=O)Nc5cccnc5)CC4)c(Br)cnc3[nH]2)cc1 | 1650 | 118 |  |
| CC(c1ccccc1)N1CCN(c2c(Cl)cnc3[nH]c(-c4ccc(N(C)C)cc4)nc23)CC1 (stereo unspecified) | 900 | 79 |  |
| Cc1cc(CN2CCN(c3c(Br)cnc4[nH]c(-c5ccc(Cn6cccn6)cc5)nc34)CC2)no1 | 120 |  |  |
| Cc1cc(CN2CCN(c3c(Br)cnc4[nH]c(-c5ccc(OCCO)cc5)nc34)CC2)no1 | 280 | 30 | solubility [1]: 10 µg/mL (≈ 19.5 µM); remaining at 0.5 h, 10 µM [2]: > 50% |
| CN(C)c1ccc(-c2nc3c(N4CCNCC4)c(Br)cnc3[nH]2)cc1 | 950 | 365 |  |
| Brc1cnc2[nH]c(-c3ccc(CN4CCOCC4)cc3)nc2c1N1CCN(Cc2cccnc2)CC1 | 280 |  | bioavailability [3]: 13%; solubility [1]: 30 µg/mL (≈ 54.7 µM) |
| CN(C)c1ccc(-c2nc3c(N4CCN(CC(=O)Nc5ccccc5)CC4)c(Cl)cnc3[nH]2)cc1 | 2550 | 115 |  |
| O=C(CN1CCN(c2c(Br)cnc3[nH]c(-c4ccccc4)nc23)CC1)Nc1nccs1 | 3000 | 81 |  |
| Cc1cc(CN2CCN(c3c(Cl)cnc4nc(-c5ccc(CN)cc5)[nH]c34)CC2)no1 | 650 | 55 | remaining at 0.5 h, 10 µM [2]: > 50% |
| CN(C)c1ccc(-c2nc3c(N4CCN(S(=O)(=O)c5ccccc5)CC4)c(Br)cnc3[nH]2)cc1 |  | 178 |  |

| SMILES | GI50 (HCT-116) [nM] | IC50 (Aurora kinase A) [nM] | further results |
| --- | --- | --- | --- |
| COc1ccc(-c2nc3c(N4CCN(CC(=O)Nc5nccs5)CC4)c(Cl)cnc3[nH]2)cc1 | 900 | 52 |  |
| Cc1cc(CN2CCN(c3c(Cl)cnc4[nH]c(-c5ccc(Cn6cccn6)cc5)nc34)CC2)no1 | 450 |  |  |
| CN(C)c1ccc(-c2nc3c(N4CCN(CC(=O)Nc5cccc(Cl)c5)CC4)c(Cl)cnc3[nH]2)cc1 | 2670 | 75 |  |
| CN(C)c1ccc(-c2nc3c(N4CCN(CC(=O)Nc5nccs5)CC4)c(C#N)cnc3[nH]2)cc1 | 1030 | 50 |  |
| Cc1cc(CN2CCN(c3c(Br)cnc4[nH]c(-c5ccc(CN)cc5)nc34)CC2)no1 | 240 | 10 | remaining at 0.5 h, 10 µM [2]: > 50% |
| Cc1cc(CN2CCN(c3c(Cl)cnc4nc(-c5ccc(OCCO)cc5)[nH]c34)CC2)no1 | 450 | 20 | remaining at 0.5 h, 10 µM [2]: > 50% |
| Cc1cc(CN2CCN(c3c(Br)cnc4[nH]c(-c5ccc(N6CCNCC6)cc5)nc34)CC2)no1 | 100 |  | remaining at 0.5 h, 10 µM [2]: > 50% |
| COc1ccc(-c2nc3ncc(C4CC4)c(N4CCN(CC(=O)Nc5nccs5)CC4)c3[nH]2)cc1 | 2500 | 53 |  |
| Clc1ccc(CN2CCN(c3c(Br)cnc4[nH]c(-c5ccc(CN6CCOCC6)cc5)nc34)CC2)cc1 | 600 |  | inhibition [4]: 35%; inhibition [5]: 3%; inhibition [6]: 8%; inhibition [7]: 4%; inhibition [8]: 35%; inhibition [9]: 33%; inhibition [10]: 15%; inhibition [11]: 60%; inhibition [12]: 98%; inhibition [13]: 5%; inhibition at 10 µM (hERG (KCNH2)): 53% |
| Brc1cnc2[nH]c(-c3ccc(CN4CCOCC4)cc3)nc2c1N1CCN(Cc2cncnc2)CC1 | 420 | 6 |  |
| CN(C)c1ccc(-c2nc3c(N4CCN(CC(=O)Nc5nccs5)CC4)c(Br)cnc3[nH]2)cc1 | 480 | 55 |  |
| CN(C)Cc1ccc(-c2nc3c(N4CCN(CC(=O)Nc5nccs5)CC4)c(Br)cnc3[nH]2)cc1 | 1000 | 16 |  |
| Cn1ccnc1CN1CCN(c2c(Br)cnc3[nH]c(-c4ccc(CN5CCOCC5)cc4)nc23)CC1 | 1500 | 30 |  |
| COc1ccc(-c2nc3c(N4CCN(Cc5cncnc5)CC4)c(Br)cnc3[nH]2)cc1 | 400 | 8 |  |
| CC(c1ccncc1)N1CCN(c2c(Br)cnc3[nH]c(-c4ccc(N(C)C)cc4)nc23)CC1 (stereo unspecified) | 900 | 85 |  |
| Cc1cc(CN2CCN(c3c(Br)cnc4[nH]c(-c5ccc(CN6CCOCC6)cc5)nc34)CC2)no1 | 60 | 2 |  |
| COc1ccc(-c2nc3c(N4CCN(CC5CC5)CC4)c(Br)cnc3[nH]2)cc1 | 830 | 650 |  |
| Cc1cc(CN2CCN(c3c(Br)cnc4nc(-c5ccc(CN(C)C)cc5)[nH]c34)CC2)no1 | 230 | 14 | remaining at 0.5 h, 10 µM [2]: > 50% |
| COc1ccc(-c2nc3c(N4CCN(Cc5cscn5)CC4)c(Br)cnc3[nH]2)cc1 | 320 | 4 | remaining at 0.5 h, 10 µM [2]: 45% |
